Results published in patent publication US8450342B2, “Perharidines as CDK inhibitors” (Centre Nationale de la Recherche Scientifique, priority 2008, dated 2013).
Read-outs that look alike come from different tables or passages of the source.

Tests used:
Erk2 = Erk2 (Homo sapiens, UniProt P28482); assay: Erk2 kinase assay; format: biochemical; settings: Table 5
Experimental: (§1) Blank values were subtracted and activities expressed in % of the maximal activity, i.e. in the absence of inhibitors. Controls were performed with appropriate dilutions of dimethylsulfoxide.
(§2) The compounds were tested at various concentrations in the kinase assays, as described in the Methods section.

[1] = test system: retinoblastoma protein phosphorylation; assay: Western blot, retinoblastoma protein phosphorylation on CDK2/CDK4 sites in SH-SY5Y; format: cell-based, human; settings: for total Rb: FIG. 8
Experimental: (§3) SH-SY5Y human neuroblastoma cells were grown in DMEM medium (Invitrogen, Cergy Pontoise, France). […] Human foreskin primary fibroblasts (kindly provided by Dr. Gilles Ponzio) were grown in DMEM supplemented with 2 mM L-glutamine and 20 mM HEPES. All the media were supplemented with antibiotics (penicillin-streptomycin) from Lonza and 10% volume of FCS from Invitrogen. Cells were cultured at 37° C. with 5% CO2. Drug treatments were performed on exponentially growing cultures at the indicated time and concentrations. Control experiments were carried out using appropriate dilutions of DMSO. MDCK cell-lines were used to test compounds PKD.
(§4) Cells were resuspended and lysed for 30 minutes at 4° C. in Homogenization Buffer [60 mM β-glycerophosphate, 15 mM p-nitrophenyl phosphate, 25 mM MOPS (pH 7.2), 15 mM EGTA, 15 mM MgCl2, 1 mM dithiothreitol, 1 mM sodium vanadate, 1 mM NaF, 1 mM phenylphosphate, 0.1% Nonidet P-40 and protease inhibitor cocktail] and sonicated. After centrifugation (14000 rpm for 15 minutes at 4° C.), the protein concentration was determined in the supernatants by the Bradford protein assay (Bio-Rad).
(§5) Whole cell extracts were prepared in buffer containing 100 mM Tris/HCl (pH, 6.8), 1 mM EDTA, 2% SDS and protease inhibitor cocktail. Following heat denaturation for 5 minutes, proteins were separated on 10% or 7% NuPAGE pre-cast Bis-Tris or Tris-Acetate polyacrylamide mini gels (Invitrogen) with MOPS SDS (all but cytochrome C, RNA polymerase II and phospho-Ser2—RNA polymerase II Western blots), MES SDS (cytochrome C), or Tris-Acetate SDS (RNA polymerase II and phospho-Ser2—RNA polymerase II) running buffer depending on protein size. Proteins were transferred to 0.45 μm nitrocellulose filters (Schleicher and Schuell). These were blocked with 5% low fat milk in Tris-Buffered Saline—Tween-20, incubated for 1 h with antibodies (anti-actin: 1:2000) or overnight at 4° C. (cytochome C: 1:500), Rb (1:500), phosphor-Rb (1:500), phospho-Thr320-PP1α (1:1000), RNA polymerase II (1:500), phosphor-Ser2-RNA polymerase II (1:500), Mcl-1 (1:500), caspase-9 (1:1000) and analyzed by Enhanced Chemiluminescence (ECL, Amersham).

CDK1/cyclin B = CDK1/cyclin B kinase assay; format: biochemical, starfish
Experimental: (§6) Controls were performed with appropriate dilutions of dimethylsulfoxide.
(§7) ATP (3,000 Ci/mmol; 10 mCi/ml) in a final volume of 30 μl. After 30 min. incubation at 30° C., 25 μl aliquots of supernatant were spotted onto 2.5×3 cm pieces of Whatman P81 phosphocellulose paper, and, 20 sec. later, the filters were washed five times (for at least 5 min. each time) in a solution of 10 ml phosphoric acid/liter of water. The wet filters were counted in the presence of 1 ml ACS (Amersham) scintillation fluid.

CDK5/p25 = molecular target: T1, CDK5/p25 (Homo sapiens, UniProt Q00535); assay: CDK5/p25 kinase assay; format: biochemical
T1 construct: made in house
T1 sequence (Q00535 whole entry): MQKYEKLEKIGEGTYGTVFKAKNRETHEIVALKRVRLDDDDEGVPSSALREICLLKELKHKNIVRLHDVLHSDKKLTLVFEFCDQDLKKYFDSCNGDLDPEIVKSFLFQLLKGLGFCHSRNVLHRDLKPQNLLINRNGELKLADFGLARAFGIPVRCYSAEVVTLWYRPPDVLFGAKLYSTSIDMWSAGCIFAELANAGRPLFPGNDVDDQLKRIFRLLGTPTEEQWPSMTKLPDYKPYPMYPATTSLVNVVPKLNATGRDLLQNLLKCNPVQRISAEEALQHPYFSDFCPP
T1 sequence (Q15078 99-307 partner limits assumed): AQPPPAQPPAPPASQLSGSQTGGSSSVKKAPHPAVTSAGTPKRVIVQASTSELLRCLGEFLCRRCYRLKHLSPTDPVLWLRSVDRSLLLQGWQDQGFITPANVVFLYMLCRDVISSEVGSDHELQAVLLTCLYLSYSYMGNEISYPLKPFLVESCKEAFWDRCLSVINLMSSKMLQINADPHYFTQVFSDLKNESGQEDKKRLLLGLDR
Experimental: as §6, §7

[2] = test system: SH-SY5Y human neuroblastoma cells; assay: Cell survival (MTS assay), SH-SY5Y; format: cell-based; settings: read-out: SH-SY5Y cell survival
Experimental: as §3

LS 174T = assay: Cell survival, LS 174T; format: cell-based; settings: Homo sapiens, LS174T; Table 6
Experimental: Cell viability was determined by measuring the reduction of 3-(4,5-dimethylthiazol-2-yl)-5-(3-carboxymethoxyphenyl)-2-(4-sulfophenyl)-2H-tetrazolium (MTS). Cell death was determined by measuring the level of lactate dehydrogenase activity (LDH) released upon cell lysis.

CDK7/cyclin H = CDK7/cyclin H (Homo sapiens, UniProt P50613); assay: CDK7/cyclin H kinase assay; format: biochemical; settings: Table 4
Chain of CDK7/cyclin H (P50613 whole entry, species assumed): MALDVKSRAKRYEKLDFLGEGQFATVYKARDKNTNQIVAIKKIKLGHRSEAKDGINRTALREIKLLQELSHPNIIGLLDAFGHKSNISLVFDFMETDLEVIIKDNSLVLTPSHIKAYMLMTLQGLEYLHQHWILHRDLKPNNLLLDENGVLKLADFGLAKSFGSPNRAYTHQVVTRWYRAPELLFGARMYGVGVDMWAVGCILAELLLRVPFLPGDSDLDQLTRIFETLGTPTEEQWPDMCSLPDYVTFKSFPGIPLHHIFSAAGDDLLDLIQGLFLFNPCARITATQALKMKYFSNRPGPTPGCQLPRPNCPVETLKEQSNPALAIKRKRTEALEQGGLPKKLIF
Chain of CDK7/cyclin H (P51946 whole entry partner, species assumed): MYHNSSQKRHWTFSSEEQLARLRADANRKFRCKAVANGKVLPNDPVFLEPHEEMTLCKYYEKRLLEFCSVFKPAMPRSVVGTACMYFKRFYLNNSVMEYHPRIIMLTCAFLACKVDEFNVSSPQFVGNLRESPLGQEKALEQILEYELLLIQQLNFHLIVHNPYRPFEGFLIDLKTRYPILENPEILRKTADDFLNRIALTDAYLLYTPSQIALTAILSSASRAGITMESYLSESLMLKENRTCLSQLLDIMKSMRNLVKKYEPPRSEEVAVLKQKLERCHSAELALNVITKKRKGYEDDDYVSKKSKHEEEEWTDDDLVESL
Experimental: as §1, §2

CDK9/cyclin T = molecular target: T2, CDK9/cyclin T (Homo sapiens, UniProt P50750); assay: CDK9/cyclin T kinase assay; format: biochemical; settings: Table 5; read-out: CDK9/cyclin T
T2 construct: made in house; host or cells: insect cells
T2 sequence (P50750 whole entry): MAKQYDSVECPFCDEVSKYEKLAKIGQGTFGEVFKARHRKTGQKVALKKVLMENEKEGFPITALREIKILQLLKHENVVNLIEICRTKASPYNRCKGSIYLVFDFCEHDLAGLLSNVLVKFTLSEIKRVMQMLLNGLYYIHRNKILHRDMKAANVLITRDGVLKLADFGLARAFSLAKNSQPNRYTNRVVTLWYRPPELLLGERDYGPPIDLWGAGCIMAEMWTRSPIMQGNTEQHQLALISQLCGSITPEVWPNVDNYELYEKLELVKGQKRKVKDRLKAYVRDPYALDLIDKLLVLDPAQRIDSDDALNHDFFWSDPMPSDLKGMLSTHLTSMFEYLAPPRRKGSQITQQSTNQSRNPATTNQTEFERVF
T2 sequence (O60563 whole entry partner): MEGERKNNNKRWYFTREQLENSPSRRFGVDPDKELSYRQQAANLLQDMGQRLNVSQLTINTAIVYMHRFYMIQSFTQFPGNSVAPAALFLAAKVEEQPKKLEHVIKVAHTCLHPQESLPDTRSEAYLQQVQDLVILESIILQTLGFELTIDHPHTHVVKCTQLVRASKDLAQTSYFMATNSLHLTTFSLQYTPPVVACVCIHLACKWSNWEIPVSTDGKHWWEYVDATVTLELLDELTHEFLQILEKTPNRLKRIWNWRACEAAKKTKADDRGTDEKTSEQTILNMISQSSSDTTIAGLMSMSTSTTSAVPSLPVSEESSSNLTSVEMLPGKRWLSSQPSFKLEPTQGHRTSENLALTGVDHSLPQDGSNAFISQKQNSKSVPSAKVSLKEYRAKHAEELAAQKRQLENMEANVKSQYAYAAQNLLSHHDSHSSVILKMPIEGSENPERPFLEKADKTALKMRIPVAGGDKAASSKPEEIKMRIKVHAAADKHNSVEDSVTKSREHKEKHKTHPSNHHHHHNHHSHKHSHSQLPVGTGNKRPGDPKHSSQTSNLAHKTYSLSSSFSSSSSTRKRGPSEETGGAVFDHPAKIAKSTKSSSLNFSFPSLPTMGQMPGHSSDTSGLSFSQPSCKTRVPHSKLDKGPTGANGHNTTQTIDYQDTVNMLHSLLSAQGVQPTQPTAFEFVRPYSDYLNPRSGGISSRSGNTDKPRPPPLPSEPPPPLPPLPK
Experimental: as §1

CK1δ/ε = assay: CK1 kinase assay; format: biochemical, porcine; settings: read-out: CK1
Experimental: as §1

GSK-3α/β = GSK-3α/β kinase assay; format: biochemical, porcine
Experimental: as §1

[3] = test system: HEK 293 human embryonic kidney cell line; assay: Cell survival (MTS assay), HEK293; format: cell-based
Experimental: as §3

CDK2/cyclin E = CDK2/cyclin E (Homo sapiens, UniProt P24941); assay: CDK2/cyclin E kinase assay; format: biochemical; settings: Table 5
Experimental: as §6, §2

DYRK1A = DYRK1A (Homo sapiens, UniProt Q13627); assay: DYRK1A kinase assay; format: biochemical; settings: Table 5; read-out: DYRK1A
Experimental: as §1, §2

[4] = test system: RNA polymerase II Ser2 phosphorylation; assay: Western blot, RNA polymerase II Ser2 phosphorylation in SH-SY5Y; format: cell-based, human; settings: for total RNA pol II: FIG. 10
Experimental: (§8) SH-SY5Y human neuroblastoma cells were grown in DMEM medium (Invitrogen, Cergy Pontoise, France). The HEK 293 human embryonic kidney cell line was grown in MEM medium from Invitrogen. Human foreskin primary fibroblasts (kindly provided by Dr. Gilles Ponzio) were grown in DMEM supplemented with 2 mM L-glutamine and 20 mM HEPES. All the media were supplemented with antibiotics (penicillin-streptomycin) from Lonza and 10% volume of FCS from Invitrogen. Cells were cultured at 37° C. with 5% CO2. Drug treatments were performed on exponentially growing cultures at the indicated time and concentrations. Control experiments were carried out using appropriate dilutions of DMSO. MDCK cell-lines were used to test compounds PKD.
as §4, §5

HCT116 (Spheroids) = assay: Cell survival, HCT116 (Spheroids); format: cell-based; settings: Homo sapiens, HCT-116; Table 6
CDK2/cyclin A = molecular target: T3, CDK2/cyclin A (Homo sapiens, UniProt P24941); assay: CDK2/cyclin A kinase assay; format: biochemical; settings: Table 5; read-out: CDK2/cyclin A
T3 construct: made in house; host or cells: insect cells
Experimental: as §1
CDK2/cyclin A (human, recombinant, expressed in insect cells) was assayed as described for CDK1/cyclin B.

B2-CLL lymphocytes = assay: Survival / cell death of B2-CLL lymphocytes from patients; format: cell-based, human
Experimental: Cell viability was determined by measuring the reduction of 3-(4,5-dimethylthiazol-2-yl)-5-(3-carboxymethoxyphenyl)-2-(4-sulfophenyl)-2/H-tetrazolium (MTS). Cell death was determined by measuring the level of lactate dehydrogenase activity (LDH) released upon cell lysis.

[5] = test system: protein phosphatase 1-α Thr320 phosphorylation; assay: Western blot, protein phosphatase 1-α phosphorylation on Thr320 in SH-SY5Y; format: cell-based, human; settings: FIG. 11, compared with (R)-Roscovitine
Experimental: as §8, §4
(§9) Whole cell extracts were prepared in buffer containing 100 mM Tris/HCl (pH, 6.8), 1 mM EDTA, 2% SDS and protease inhibitor cocktail. […]

HCT116 (Oncodesign) = assay: Cell survival, HCT116 (Oncodesign); format: cell-based; settings: Homo sapiens, HCT-116; Table 6
p27 total protein = assay: Western blot, p27 total protein in SH-SY5Y; format: cell-based, human; settings: FIG. 14, compared with (R)-Roscovitine
Experimental: as §8, §4, §9

p53 total protein = assay: Western blot, p53 total protein in SH-SY5Y; format: cell-based, human; settings: FIG. 13, compared with (R)-Roscovitine
Experimental: as §8, §4, §9

LS 174T (Oncodesign) = assay: Cell survival, LS 174T (Oncodesign); format: cell-based; settings: Homo sapiens, LS174T; Table 6
PARP cleavage = assay: Western blot, PARP cleavage in SH-SY5Y; format: cell-based, human; settings: FIG. 15, compared with (R)-Roscovitine
Experimental: as §8, §4, §9

Mcl-1 = assay: Western blot, survival factor Mcl-1 in SH-SY5Y; format: cell-based, human; settings: FIG. 12, compared with (R)-Roscovitine
Experimental: as §8, §4, §9

cell lines = assay: Anti-proliferative activities on cell lines, summary; format: cell-based; settings: in words; listed as formula Ib
[6] = Table 5, read-out: CDK1/cyclin B
[7] = Homo sapiens, Lymphocyte, LLC B-cells, read-out: Cell death induction
[8] = Homo sapiens, Lymphocyte, Table 6, read-out: Chronic Lymphocytic Leukemia cell survival

Chain of Erk2 (P28482 whole entry, species assumed): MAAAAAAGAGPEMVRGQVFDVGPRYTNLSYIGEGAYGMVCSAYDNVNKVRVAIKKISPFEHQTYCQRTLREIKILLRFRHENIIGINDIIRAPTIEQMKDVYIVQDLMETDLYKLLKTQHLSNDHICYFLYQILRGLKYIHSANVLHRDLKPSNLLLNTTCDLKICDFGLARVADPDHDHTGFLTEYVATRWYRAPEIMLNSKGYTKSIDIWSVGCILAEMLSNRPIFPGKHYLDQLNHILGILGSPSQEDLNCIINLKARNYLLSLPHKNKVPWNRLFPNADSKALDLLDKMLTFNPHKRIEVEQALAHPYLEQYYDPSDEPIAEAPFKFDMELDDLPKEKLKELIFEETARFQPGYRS

CC[C@H](CO)Nc1cc(NCc2ccccc2)c2ncn(C(C)C)c2n1 [(R)-perharidine A]
IC50 (Erk2): 7000 nM | total Rb [1]: essentially constant | IC50 (CDK1/cyclin B; Table 4, read-out: CDK1): 350 nM | IC50 (CDK1/cyclin B; [6]): 430 nM | IC50 (CDK5/p25; Table 4, read-out: CDK5): 200 nM | IC50 (CDK5/p25; Table 5, read-out: CDK5/p25): 400 nM | IC50 ([2]; Table 4, MTS assay): 16200 nM | IC50 ([2]; Table 6, MTS assay): 14300 nM | IC50 (LS 174T): 21500 nM | IC50 (CDK7/cyclin H): 900 nM | IC50 (CDK9/cyclin T): 480 nM | IC50 (CK1δ/ε; Table 4): 4000 nM | IC50 (CK1δ/ε; Table 5): 11000 nM | IC50 (GSK-3α/β; Table 4, read-out: GSK3): > 30000 nM | IC50 (GSK-3α/β; Table 5, read-out: GSK-3α/β): > 100000 nM | IC50 ([3]; HEK293, Table 4, MTS assay): 35600 nM | IC50 ([3]; HEK293, Table 6, MTS assay): 27400 nM | IC50 (CDK2/cyclin E): 180 nM | IC50 (DYRK1A): 2800 nM | total RNA pol II [4]: essentially constant | IC50 (HCT116 (Spheroids)): 10000 nM | IC50 (CDK2/cyclin A): 300 nM | IC50 (B2-CLL lymphocytes; [7]): 7050 nM | IC50 (B2-CLL lymphocytes; [8]): 7050 nM

CC[C@H](CO)Nc1cc(NCc2ccc(-c3ccccn3)cc2)c2ncn(C(C)C)c2n1 [(R)-perharidine C]
IC50 (Erk2): 22000 nM | total Rb [1]: essentially constant | inhibition of CDK2/4 in cells (retinoblastoma protein phosphorylation) ([1]; compared with (R)-Roscovitine): at lower concentrations than (R)-Roscovitine | inhibition of CDK1/cyclin B in cells (protein phosphatase 1-α Thr320 phosphorylation) [5]: at lower concentration than (R)-Roscovitine | IC50 (HCT116 (Oncodesign)): 600 nM | IC50 (CDK1/cyclin B; [6]): 460 nM | IC50 (CDK5/p25; Table 5, read-out: CDK5/p25): 600 nM | IC50 ([2]; Table 6, MTS assay): 1460 nM | p27 total protein down-regulation (p27 total protein): at lower concentration than (R)-Roscovitine | p53 total protein expression (p53 total protein): at lower concentration than (R)-Roscovitine | IC50 (LS 174T (Oncodesign)): 290 nM | IC50 (CDK9/cyclin T): 530 nM | IC50 (CK1δ/ε; Table 5): 1100 nM | PARP cleavage (PARP cleavage): at lower concentration than (R)-Roscovitine | IC50 (GSK-3α/β; Table 5, read-out: GSK-3α/β): 11000 nM | IC50 (CDK2/cyclin E): 250 nM | IC50 (DYRK1A): 11000 nM | inhibition of CDK9 in cells (RNA polymerase II Ser2 phosphorylation) ([4]; FIG. 9, compared with (R)-Roscovitine): at lower concentration than (R)-Roscovitine | total RNA pol II [4]: essentially constant | IC50 (HCT116 (Spheroids)): 350 nM | down-regulation of survival factor Mcl-1 (Mcl-1): at lower concentration than (R)-Roscovitine | IC50 (CDK2/cyclin A): 360 nM | IC50 (B2-CLL lymphocytes; [7]): 310 nM | IC50 (B2-CLL lymphocytes; [8]): 310 nM | IC50 (B2-CLL lymphocytes; LLC B-cells, read-out: Cell death induction): 280 nM

CC[C@@H](CO)Nc1cc(NCc2ccccc2)c2ncn(C(C)C)c2n1 [(S)-perharidine B, (S)-7-Benzylamino-5-[(2-butyl-1-ol)amino]-3-iso-propylimidazo[4,5-b]pyridine]
IC50 (Erk2): 9000 nM | total Rb [1]: essentially constant | IC50 (CDK1/cyclin B; [6]): 730 nM | IC50 (CDK5/p25; Table 5, read-out: CDK5/p25): 500 nM | IC50 ([2]; Table 6, MTS assay): 28000 nM | IC50 (LS 174T): 37500 nM | IC50 (CDK9/cyclin T): 1300 nM | anti-proliferative activities compared with (R)-Roscovitine (cell lines): somewhat less efficient | IC50 (CK1δ/ε; Table 5): 4800 nM | IC50 (GSK-3α/β; Table 5, read-out: GSK-3α/β): > 30000 nM | IC50 ([3]; HEK293, Table 6, MTS assay): 45000 nM | IC50 (CDK2/cyclin E): 310 nM | IC50 (DYRK1A): 22000 nM | total RNA pol II [4]: essentially constant | IC50 (CDK2/cyclin A): 420 nM | IC50 (B2-CLL lymphocytes; [7]): 15300 nM | IC50 (B2-CLL lymphocytes; [8]): 15300 nM
